Measurements: patent US5663186A, “Treatment of atherosclerosis with angiotensin II receptor blocking imidazoles” (Merck & Co., Inc., priority 1995, dated 1997)

What was measured:
Format in all cases: in vivo
[1] = tested on: patients with mild to moderate hypertension; test: Clinical study: triglycerides
Procedure: After six weeks the non-responders were titrated to a 100 mg oral dose administered once daily.

[2] = tested on: patients with mild to moderate hypertension; test: Clinical study: total cholesterol
Procedure: The total, HDL, LDL and VLDL cholesterol levels were measured using the procedures described below:
Cholesterol esters in the sample are hydrolyzed by cholesterol esterase to cholesterol and free fatty acids. The cholesterol produced in the reaction plus the free cholesterol present in the sample, are oxidized by cholesterol oxidase to form cholesten-3-one and hydrogen peroxide. Peroxidase catalyzes the hydrogen peroxide oxidation and 4-aminoantipyrine(4-AAP) and phenol with subsequent coupling to 3,4-dichlorophenol. The end product is a quinoneimine dye which is read at a primary wavelength of 520 nm. The color formation is proportional to the concentration of cholesterol present. This absorbance value is then compared to the absorbance by a known calibrator. The result is then printed out directly in mg/dL.

[3] = tested on: patients with mild to moderate hypertension; test: Clinical study: sitting diastolic blood pressure
Procedure: Sitting Diastolic Blood Pressure Results At Week 6 and 12
The changes from baseline blood pressure (primary=trough sitting diastolic blod pressure at weeks 6 and 12) were evaluated using a least squares analysis of the means based upon an analysis of covariance (covariate=baseline blood pressure)for a randomized block (block=investigator site) design. An "all-patients-treated" and a "per-protocol" analysis were performed. The study was designed to detect a 5 mmHg difference in mean change between treatments with 95% probability based upon a group size of 86 with an α of 0.05 (two-sided) and a standard deviation of 9 mmHg.

CCCCc1nc(Cl)c(CO)n1Cc1ccc(-c2ccccc2-c2nnn[nH]2)cc1.[K] [Losartan, 2-n-butyl-4-chloro-1-[(2'-(tetrazol-5-yl)-1,1'-biphenyl-4-yl)-methyl]-1H-imidazole-5-methanol potassium salt]
TRIGLYCERIDES, TREATMENT MEAN ([1]; LOS 50, week 12, N 107): 173.1 mg/dL
TRIGLYCERIDES, CHANGE MEAN ([1]; LOS 50, week 12, N 107, change from baseline 170.4): 2.7 mg/dL
TRIGLYCERIDES, TREATMENT MEAN ([1]; LOS 50/100, week 12, N 106): 187.8 mg/dL
TRIGLYCERIDES, CHANGE MEAN ([1]; LOS 50/100, week 12, N 106, change from baseline 174.4): 13.4 mg/dL
TOTAL CHOLESTEROL, CHANGE MEAN ([2]; LOS 50, week 12, N 107, change from baseline 211.1): -3.9 mg/dL
TOTAL CHOLESTEROL, TREATMENT MEAN ([2]; LOS 50, week 12, N 107, oral once daily): 207.3 mg/dL
TOTAL CHOLESTEROL, TREATMENT MEAN ([2]; LOS 50/100, week 12, N 106): 204.8 mg/dL
TOTAL CHOLESTEROL, CHANGE MEAN ([2]; LOS 50/100, week 12, N 106, change from baseline 212.6): -7.9 mg/dL
Category I: Trough SDBP <90 mmHg, number of patients ([3]; 6 wk, 50 mg, of 125): 37
Category I: Trough SDBP <90 mmHg, percent of patients ([3]; 6 wk, 50 mg, of 125): 29.6%
Category II: Trough SDBP ≥90 mmHg, number of patients ([3]; 6 wk, 50 mg, of 125): 20
Category II: Trough SDBP ≥90 mmHg, percent of patients ([3]; 6 wk, 50 mg, of 125): 16.0%
Category III: Neither Category I or II, number of patients ([3]; 6 wk, 50 mg, of 125): 68
Category III: Neither Category I or II, percent of patients ([3]; 6 wk, 50 mg, of 125): 54.4%
Category I: Trough SDBP <90 mmHg, number of patients ([3]; 6 wk, 50/100 mg, of 118): 37
Category I: Trough SDBP <90 mmHg, percent of patients ([3]; 6 wk, 50/100 mg, of 118): 31.3%
Category II: Trough SDBP ≥90 mmHg, number of patients ([3]; 6 wk, 50/100 mg, of 118): 21
Category II: Trough SDBP ≥90 mmHg, percent of patients ([3]; 6 wk, 50/100 mg, of 118): 17.7%
Category III: Neither Category I or II, number of patients ([3]; 6 wk, 50/100 mg, of 118): 60
Category III: Neither Category I or II, percent of patients ([3]; 6 wk, 50/100 mg, of 118): 50.8%
Category I: Trough SDBP <90 mmHg, number of patients ([3]; 12 wk, 50 mg, of 125): 40
Category I: Trough SDBP <90 mmHg, percent of patients ([3]; 12 wk, 50 mg, of 125): 32.0%
Category II: Trough SDBP ≥90 mmHg, number of patients ([3]; 12 wk, 50 mg, of 125): 18
Category II: Trough SDBP ≥90 mmHg, percent of patients ([3]; 12 wk, 50 mg, of 125): 14.4%
Category III: Neither Category I or II, number of patients ([3]; 12 wk, 50 mg, of 125): 67
Category III: Neither Category I or II, percent of patients ([3]; 12 wk, 50 mg, of 125): 53.6%
Category I: Trough SDBP <90 mmHg, number of patients ([3]; 12 wk, 50/100 mg, of 118): 37
Category I: Trough SDBP <90 mmHg, percent of patients ([3]; 12 wk, 50/100 mg, of 118): 31.3%
Category II: Trough SDBP ≥90 mmHg, number of patients ([3]; 12 wk, 50/100 mg, of 118): 24
Category II: Trough SDBP ≥90 mmHg, percent of patients ([3]; 12 wk, 50/100 mg, of 118): 20.3%
Category III: Neither Category I or II, number of patients ([3]; 12 wk, 50/100 mg, of 118): 57
Category III: Neither Category I or II, percent of patients ([3]; 12 wk, 50/100 mg, of 118): 48.3%
Peak Sitting Diastolic Blood Pressure, Mean (on treatment) ([3]; peak (6 hours postdose), 6 wk, 50 mg, N 118, all-patients-treated): 90.2 mmHg
Mean Change in Peak Sitting Diastolic Blood Pressure ([3]; peak (6 hours postdose), 6 wk, 50 mg, N 118, baseline 99.9): -9.7 mmHg
Change in Peak Sitting Diastolic Blood Pressure, adj. mean ([3]; peak (6 hours postdose), 6 wk, 50 mg, N 118, least squares): -9.7 mmHg
